Here are results for six substances from PMC9791135, “A penetratin-derived peptide reduces the membrane permeabilization and cell toxicity of α-synuclein oligomers” (The Journal of Biological Chemistry, 2022).

In experiment [1] the target is T1, α-syn (Homo sapiens, UniProt P37840).
T1 construct: made in house; host or cells: Escherichia coli BL21 (DE3), plasmid pET11-D
The experiment can be described thus: TEM of α-syn aggregates formed with peptides. To be noted: α-syn incubated in the presence of peptide. Format: biochemical. The protocol: Five microliters of each fibril-containing solution were applied to 400-mesh carbon-coated and glow-discharged nickel grids for 30 s, and blotted with filter paper to remove excess sample. The grids were washed with one drop of double distilled water and then stained with 3 μl of 1% uranyl formate for 15 s. Excess stain was removed by blotting paper This step was repeated two more times. Finally, the grids were left to air dry and viewed on a Tecnai G2 Spirit (FEI Company) operating at 60 kV, and images were taken using a TemCam F416 camera (TVIPS).

Experiment [2] has as its target T1, α-syn. In words: SDS-PAGE of soluble α-syn left in supernatant after fibrillation. The class given is biochemical. The following applies: SDS-PAGE after centrifugation of fibrillated samples. The protocol:
Overall, there was a reasonable but not perfect correspondence between SDS-PAGE and ThT data.
To determine the amount of soluble α-syn, fibrillated samples were centrifuged (13,000 rpm, 15 min) and the supernatants were loaded on Bis–Tris 15% acrylamide gel with prestained protein ladder (Thermo Scientific) and run in a Bis–Tris running buffer at 150 V for 70 min, stained for 20 min in Coomassie brilliant blue (1.2 mM Coomassie brilliant blue, 5% ethanol, and 7% acetic acid), and destained overnight in a destaining solution (5% ethanol and 5% acetic acid). Gel bands were quantified using ImageJ.

Experiment [3] has as its target T1, α-syn. The experiment can be described thus: ATR–FTIR of fibrillated α-syn–peptide samples. Format: biochemical. To be noted: for ATR–FTIR (amyloid structures): fibrillated samples after washing, versus α-syn alone; for Amount of amyloid structures (ATR–FTIR), in words: fibrillated α-syn samples in the presence of peptides. The source says:
(§1) To analyze the secondary structure of the final aggregates, we recorded far-UV CD and attenuated total reflectance (ATR)–FTIR spectra for fibrillated samples after washing to remove free α-syn and peptides. […] Overall, as the concentration of peptides increases, the intensity of signal at 218 nm decreases (Fig. 4A). We observed that α-syn fibrils formed in the presence of p194, p222, p235, and p249 precipitated rapidly after mixing with these peptides. This likely gives rise to light scattering, which reduces CD signals. To overcome these artifacts, we turned to ATR–FTIR spectroscopy, which is not sensitive to scattering. […] Both far-UV CD and ATR–FTIR spectroscopy confirm extensive β-sheet structure. However, in the presence of peptides, some structural changes were observed as reflected by the decrease in the amyloid cross β-sheet structure at ∼1629 cm^−1 and increases in the random and coil structures (∼1656 and ∼1676 cm^−1, respectively) (Table 2). […] Taking all together, ATR–FTIR data are in reasonable agreement with far-UV CD.
The samples prepared in the CD section were also used to measure FTIR spectra on a Tensor 27 FTIR spectrophotometer (Bruker). About 2 μl α-syn fibrils were dried on the ATR crystal with a gentle stream of nitrogen gas. Spectra were accumulations of 68 scans in the 4000 to 1000 cm^−1 range. Baseline correlation, second derivative, and atmospheric compensation were performed with OPUS 5.5 software (Bruker, Germany). Signals in the amide I region (∼1550–1700 cm^−1) were smoothed and deconvoluted with PeakFit, version 4.12 software (ِSystat Software Inc) using Lorentzian fitting.

A short description of experiment [4]: Calcein release assay, substance alone. The following applies: for Permeabilization of lipid vesicles by peptide alone: calcein-loaded DOPG vesicles, 10^−6 to 10^−1 mg/ml peptide, 37 °C, triplicate. The protocol:
(§2) αSOs show cytotoxic properties, which have been attributed to their membrane-disrupting ability ([69]). To examine the effect of peptides on membrane permeabilization by αSOs, we used a simple calcein release assay. αSOs, peptides, and aSO–peptide mixtures at 10^−6 to 10^−1 mg/ml peptide were added to calcein-loaded DOPG vesicle, and the extent of calcein release was monitored for 30 min by the increase in fluorescence as calcein leaks out upon membrane permeabilization, leading to dilution and the loss of self-quenching. The time-dependent calcein release data from DOPG vesicles ([70], [71]) in the presence of peptides, αSOs, and αSO–peptides are shown in Figs. S9 and S10. In order to allow easy comparison of all peptides, the calcein release versus concentration (peptides and αSOs) were plotted at the plateau point of release (Fig. 5, A–C). […] Figure 5D compares calcein release percentages of data represented in Figure 5, A and B at peptide concentrations between 0.001 and 0.1 mg/ml, where we see the largest extent of calcein release in general.
(§3) Calcein-filled vesicles of DOPG were prepared as described before ([38]). Briefly, DOPG was dissolved in PBS to […], in the presence of calcein at self-quenching concentrations (70 mM) and subjected to 10 freeze–thaw cycles between liquid nitrogen and a 50 °C water bath. After 21 times extrusion through a 100 nm filter, free calcein was separated from vesicles with a PD-10 desalting column (GE Healthcare). Vesicles were stored at 4 °C and used for calcein release assays within 24 h.
(§4) Calcein release was measured by mixing peptides and/or αSOs at a final concentration of 10^−6 to 10^−1 mg/ml and 5.2 μg/ml, respectively, in 148 μl with 2 μl of calcein vesicles, and were then loaded onto a 96-well plate (Nunc, Thermo Fischer Scientific) in triplicate. The plate was sealed with Crystal clear sealing tape (Hampton Research), and fluorescence was measured (excitation: 485 nm and emission: 520 nm) for 1 h at 37 °C every 2 min with a 2 s autoshake before each reading on a fluorescence plate reader (Tecan). Finally, 2 μl Triton X-100 (0.2% [v/v]) was added to lyse vesicles, and the maximal fluorescence signal was measured for 20 min under the same reading condition. Background fluorescence was subtracted, and the average signal of calcein release before addition of Triton X-100 (F), after treatment with Triton X-100 (Ft) and for the buffer control (F0) were determined, and calcein release percentage was calculated as follow (Equation 1):(1) CalceinRelease%(CR%)=(F−F0)/(Ft−F0)

For experiment [5], the target named is T2, αSOs (Homo sapiens, UniProt P37840).
T2 construct: made in house; host or cells: Escherichia coli BL21 (DE3); oligomers formed by shaking the monomer and isolated by SEC (Superose 6)
In words: Calcein release assay, αSOs together with peptides. To be noted: αSOs at calcein^50% (5.2 μg/ml). Format: biochemical. The protocol:
as §2, §3, §4

The target in experiment [6] is T1, α-syn. The experiment can be described thus: Far-UV CD of fibrillated α-syn–peptide samples. The class given is biochemical. To be noted: fibrillated samples after washing, signal at 218 nm; versus α-syn alone.
Text: as §1
To remove free α-syn and peptides, fibrillated samples were centrifuged (13,000 rpm, 15 min). This leaves monomeric α-syn plus unbound and free peptides in the supernatant. The supernatant was discarded, and the pellet was washed two times in the same volume of PBS buffer, pH 7.4, to ensure complete removal of monomeric α-syn and free peptides. Far-UV CD spectra were recorded at 25 °C on a Chirascan CD Spectrophotometer (Applied Photophysics) using a 0.1 mm quartz cuvette in the wavelength range of 200 to 260 nm with 1 nm bandwidth and three accumulations. The buffer spectrum was subtracted, and the results were expressed as mean residue ellipticity [θ] (deg cm^2 dmol^−1).

Experiment [7] addresses T1, α-syn. In words: ThT fluorescence assay of unseeded α-syn fibrillation in the presence of peptides. The class given is biochemical. The following applies: 1 mg/ml α-syn, 0–0.5 mg/ml peptide, 48 h. The protocol:
To test the effects of these selected nine peptides on the aggregation of α-syn, we performed a thioflavin T (ThT) fluorescence assay in the presence of 1 mg/ml α-syn and 0 to 0.5 mg/ml peptide for 48 h (raw data in Fig. S3). Furthermore, the peptides alone were monitored for self-fibrillation. […] High concentrations of p222, p194, and p249 led to a decline in ThT fluorescence after reaching a plateau, possibly because of the formation of insoluble amorphous species. We also carried out seeding experiments by adding 5% sonicated preaggregated α-syn fibrils to the ThT assay.
About 150 μl of 70 μM (1 mg/ml) α-syn, 40 μM ThT, and varying amounts of peptides (0, 0.06, 0.125, 0. 25, 0.375, and 0.5 mg/ml) were transferred in triplicates to a black COSTAR 96-well clear bottom plate (Nunc, Thermo Fisher Scientific), and including a 3 mm diameter glass bead (Glaswarenfabrik Karl Hecht GmbH & Co KG) per well to increase reproducibility ([100]). The plate was sealed with Crystal Clear sealing tape (Hampton Research) and incubated at 37 °C in a CLARIOstar Plus (BMG LABTECH) fluorescence plate reader. Fibrillation was carried out for ∼48 h with 300 rpm double orbital shaking between the readings for 372 s (excitation/emission: 448∕485 nm). Seeding experiments were performed using the same setting as for the fibrillation assay as described ([39]). Briefly, the experiments were done in triplicates in the presence of 0.05 mg/ml of α-syn fibril seeds (5% seeding) and 1 mg/ml of peptides in a solution of 1 mg/ml α-syn in 96-well plates.

In experiment [8] the test system is Aβ. To be noted: cited from earlier work. The source says:
Penetratin is a widely used CPP. Translocation of full-length and N-terminal truncated ([82]) penetratin has been observed in all cell types, and it is also able to cross the blood–brain barrier (BBB) ([83]). Its mechanism of translocation in live cells is complex and involves structural changes from random coil to α-helix ([84]) and transient formation of tubes or inverted micelles in the membrane that entrap the peptide in its interior. […]. The presence of Trp and net positively charged amino acid residues are important for formation of inverted ...

Take KEGVVAAAEKTKQG [p12]: in experiment [1], the “Morphology of α-syn aggregates (TEM), in words” value (“Morphology of α-syn aggregates” for short) was “did not cause any significant change in morphology”. For the same substance, in experiment [2], the “Amount of soluble α-syn monomer left in the supernatant, in words” value (from here on “Amount of soluble α-syn monomer left”) is recorded as “do not affect the amount of monomer left in the supernatant”. In experiment [3], the “ATR–FTIR (amyloid structures)” value is given as “↓ amyl” and the “Amount of amyloid structures (ATR–FTIR), in words” value (shortened to “Amount of amyloid structures”) is recorded as “did not show significant changes in FTIR spectra”. Further, the “Permeabilization of lipid vesicles by peptide alone” value (from here on “Permeabilization of lipid vesicles”) in experiment [4] is “did not permeabilize lipid vesicles”. Further, the “Effect on vesicle permeabilization by αSOs” value (“Effect … by αSOs” for short) in experiment [5] (peptide 10^−6 to 10^−1 mg/ml) is “failed to affect vesicle permeabilization by αSOs”. The “Far-UV CD (β-sheet structures)” value in experiment [6] is recorded as “↓β”. Further, the “Effect on α-syn aggregation (ThT), in words” value (from here on “Effect on α-syn aggregation”) in experiment [7] is given as “did not change the lag phase duration”.
As to SASDSRTFKSSGG [p162], the “Morphology of α-syn aggregates” value in experiment [1] was “did not cause any significant change in morphology”. Besides, the “Amount of soluble α-syn monomer left” value in experiment [2] is listed as “do not affect the amount of monomer left in the supernatant”. Also, the “Amount of amyloid structures” value in experiment [3] was “slightly decreased the amount of amyloid”. Further, the “Permeabilization of lipid vesicles” value in experiment [4] is “did not permeabilize lipid vesicles”. In experiment [5] (peptide 10^−6 to 10^−1 mg/ml), the “Effect … by αSOs” value is recorded as “failed to affect vesicle permeabilization by αSOs”. Besides, in experiment [6], the “Far-UV CD (β-sheet structures)” value is given as “↓β”. Further, in experiment [7], the “Effect on α-syn aggregation” value is “did not change the lag phase duration”.
Turning to “RQIKIWFQARRMKWKK [p194, Ala scan variant of penetratin]”, the “Morphology of α-syn aggregates” value in experiment [1] was “nonfibrillar (amorphous) accumulations”. In experiment [3], the “ATR–FTIR (amyloid structures)” value is listed as “↓↓↓ amyl” and the “Amount of amyloid structures” value is on record as “decreased”. The “Peptide concentration from which membrane toxicity is shown” value in experiment [4] (peptide alone, calcein-filled DOPG LUVs, tested range 10^−1–10^−6 mg/ml) is listed as > 10^−2 mg/ml. The “Effect … by αSOs” value in experiment [5] (peptide 0.1 mg/ml) is reported as “increased vesicle permeabilization by αSOs”. In addition, the “Far-UV CD (β-sheet structures)” value in experiment [6] is reported as “↓↓↓β”. Besides, the “Effect on α-syn aggregation” value in experiment [7] is reported as “inhibitory effect”. Further, the “ThT signal end level” value in experiment [7] (unseeded ThT, 37 °C, versus α-syn alone) is listed as “↓↓”.
For RQILIWFQNRRMLWLL [pAntp-BSB1], the “Inhibition of amyloid aggregate formation (Aβ fibrillation)” value in experiment [8] was “particularly effective inhibitors”.
With RQIKIWFQNRRMLWLXaa [pAntp], the “Inhibition of amyloid aggregate formation (Aβ fibrillation)” value in experiment [8] is reported as “particularly effective inhibitors”.
MKGLSKAKEGVVAA [p5]: the “Morphology of α-syn aggregates” value in experiment [1] is on record as “did not cause any significant change in morphology”. The “Amount of soluble α-syn monomer left” value in experiment [2] was “do not affect the amount of monomer left in the supernatant”. Also, in experiment [3], the “ATR–FTIR (amyloid structures)” value is “↓ amyl” and the “Amount of amyloid structures” value was “slightly decreased the amount of amyloid”. The “Permeabilization of lipid vesicles” value in experiment [4] is listed as “did not permeabilize lipid vesicles”. For the same substance, the “Effect … by αSOs” value in experiment [5] (peptide 10^−6 to 10^−1 mg/ml) is reported as “failed to affect vesicle permeabilization by αSOs”. Also, the “Far-UV CD (β-sheet structures)” value in experiment [6] is given as “↓β”. The “Effect on α-syn aggregation” value in experiment [7] is on record as “did not change the lag phase duration”.
